Columns and labels:
[1] = test system: Rat; assay: concentration in plasma after dosing; details: 10 min; dosed: Di-n-butyl phthalate; 20 mg/kg; iv; Male; Sprague-Dawley
[2] = test system: Rat; assay: concentration in plasma after dosing; details: 5 min; dosed: Di-n-butyl phthalate; 20 mg/kg; iv; Male; Sprague-Dawley
[3] = test system: Rat; assay: concentration in plasma after dosing; details: 5 min; dosed: Di-n-butyl phthalate; 20 mg/kg; iv; Male; Sprague-Dawley; remark: listed apart in the source
[4] = test system: Rat; assay: concentration in plasma after dosing
[5] = test system: Rat; assay: concentration in plasma after dosing; details: 10 min; dosed: Di-n-butyl phthalate; 20 mg/kg; iv; Male; Sprague-Dawley; remark: listed apart in the source
[6] = test system: Rat; assay: concentration in adipose after dosing; details: 72 h; dosed: Tamoxifen citrate; 100 ug/mL; oral; Female; F344
[7] = test system: Rat; assay: concentration in adipose after dosing; details: 144 h; dosed: Tamoxifen citrate; 100 ug/mL; oral; Female; F344
[8] = test system: Rat; assay: concentration in adipose after dosing; details: 144 h; dosed: Tamoxifen citrate; 300 ug/mL; oral; Female; F344
[9] = test system: Rat; assay: concentration in adipose after dosing; details: 144 h; dosed: Tamoxifen; 300 ug/mL; oral; Female; F344
[10] = test system: Rat; assay: concentration in adipose after dosing; details: oral, Female, F344
[11] = test system: Rat; assay: concentration in adipose after dosing; details: 144 h; dosed: Tamoxifen; 300 ug/mL; oral; Female; F344; remark: listed apart in the source
[12] = test system: Rat; assay: concentration in adipose after dosing; details: 144 h; dosed: Tamoxifen citrate; 300 ug/mL; oral; Female; F344; remark: listed apart in the source
[13] = test system: Rat; assay: concentration in adipose after dosing; details: 144 h; dosed: Tamoxifen citrate; 100 ug/mL; oral; Female; F344; remark: listed apart in the source
[14] = test system: Rat; assay: concentration in adipose after dosing; details: 144 h; dosed: Tamoxifen; 300 ug/mL; oral; Female; F344; remark: listed apart in the source
[15] = test system: Rat; assay: concentration in adipose after dosing; details: 144 h; dosed: Tamoxifen citrate; 300 ug/mL; oral; Female; F344; remark: listed apart in the source
[16] = test system: Rat; assay: concentration in plasma after dosing; details: 10 min; dosed: Bromodichloromethane; 10 mg/kg; iv; Male; F344
[17] = test system: Rat; assay: concentration in plasma after dosing; details: dosed: Bromodichloromethane, 10 mg/kg, iv, Male, F344
[18] = test system: Rat; assay: concentration in plasma after dosing; details: 1 h; dosed: Bromodichloromethane; 10 mg/kg; iv; Female; F344
[19] = test system: Rat; assay: concentration in plasma after dosing; details: dosed: Bromodichloromethane, 10 mg/kg, iv, Female, F344
[20] = test system: Rat; assay: concentration in plasma after dosing; details: dosed: Bromodichloromethane, 10 mg/kg, iv, Female, F344; remark: listed apart in the source
[21] = test system: Rat; assay: concentration in plasma after dosing; details: 10 min; dosed: Bromodichloromethane; 10 mg/kg; iv; Male; F344; remark: listed apart in the source
[22] = test system: Rat; assay: concentration in plasma after dosing; details: dosed: Bromodichloromethane, 10 mg/kg, iv, Female, F344; remark: listed apart in the source
[23] = test system: Rat; assay: concentration in plasma after dosing; details: dosed: Bromodichloromethane, 10 mg/kg, iv, Female, F344; remark: listed apart in the source
[24] = test system: Rat; assay: concentration in plasma after dosing; details: dosed: Bromodichloromethane, 10 mg/kg, iv, Male, F344; remark: listed apart in the source
[25] = test system: Rat; assay: concentration in plasma after dosing; details: dosed: Bromodichloromethane, 10 mg/kg, iv, Female, F344; remark: listed apart in the source
[26] = test system: Rat; assay: concentration in plasma after dosing; details: dosed: Bromodichloromethane, 10 mg/kg, iv, Female, F344; remark: listed apart in the source
[27] = test system: Rat; assay: concentration in plasma after dosing; details: dosed: Bromodichloromethane, 10 mg/kg, iv, Male, F344; remark: listed apart in the source
[28] = test system: Rat; assay: concentration in plasma after dosing; details: dosed: Bromodichloromethane, 10 mg/kg, iv, Male, F344; remark: listed apart in the source
[29] = test system: Rat; assay: concentration in plasma after dosing; details: dosed: Bromodichloromethane, 10 mg/kg, iv, Female, F344; remark: listed apart in the source
[30] = test system: Rat; assay: concentration in plasma after dosing; details: dosed: Bromodichloromethane, 10 mg/kg, iv, Female, F344; remark: listed apart in the source
[31] = test system: Rat; assay: concentration in plasma after dosing; details: 1 h; dosed: Bromodichloromethane; 10 mg/kg; iv; Female; F344; remark: listed apart in the source
[32] = test system: Rat; assay: concentration in plasma after dosing; details: 10 min; dosed: Bromodichloromethane; 10 mg/kg; iv; Female; F344
[33] = test system: Rat; assay: concentration in plasma after dosing; details: dosed: Bromodichloromethane, 10 mg/kg, iv, Male, F344; remark: listed apart in the source
[34] = test system: Rat; assay: concentration in plasma after dosing; details: 1 h; dosed: Bromodichloromethane; 10 mg/kg; iv; Male; F344
[35] = test system: Rat; assay: concentration in plasma after dosing; details: 1 h; dosed: Bromodichloromethane; 10 mg/kg; iv; Male; F344; remark: listed apart in the source
[36] = test system: Rat; assay: concentration in plasma after dosing; details: dosed: Bromodichloromethane, 10 mg/kg, iv, Female, F344; remark: listed apart in the source
[37] = test system: Rat; assay: concentration in plasma after dosing; details: dosed: Bromodichloromethane, 10 mg/kg, iv, Male, F344; remark: listed apart in the source
[38] = test system: Rat; assay: concentration in plasma after dosing; details: dosed: Bromodichloromethane, 10 mg/kg, iv, Male, F344; remark: listed apart in the source
[39] = test system: Rat; assay: concentration in plasma after dosing; details: dosed: Bromodichloromethane, 10 mg/kg, iv, Female, F344; remark: listed apart in the source
[40] = test system: Rat; assay: concentration in plasma after dosing; details: 4 h; dosed: Bromodichloromethane; 10 mg/kg; iv; Male; F344

CCCCOC(=O)c1ccccc1C(=O)OCCCC [Di-n-butyl phthalate]
Details | concentration in plasma [ng/mL]
[1] | 4220
[2] | 1210
[3] | 10700
[5] | 2950

[4], dosed: Di-n-butyl phthalate, 20 mg/kg, iv, Male, Sprague-Dawley
Details | concentration in plasma [ng/mL]
5 min | 9370
10 min | 3520
20 min | 957

CC/C(=C(/c1ccc(O)cc1)c1ccc(OCCN(C)C)cc1)c1ccccc1 [trans-4-Hydroxytamoxifen]
Details | concentration in adipose [ng/g]
[6] | 5.3
[7] | 5.04
[8] | 5.1
[9] | 5.1
[11] | 9.08
[12] | 9.08
[13] | 6.12
[14] | 10.3
[15] | 10.3

concentration in adipose [ng/g], [10]
Details | 72 h | 144 h
dosed: Tamoxifen citrate, 100 ug/mL | 8.8 | 4.35
dosed: Tamoxifen citrate, 300 ug/mL | – | 2.96
dosed: Tamoxifen, 300 ug/mL | – | 2.96

[4], 72 h, 300 ug/mL, oral, Female, F344
Details | concentration in plasma [ng/mL]
dosed: Tamoxifen | 1.87
dosed: Tamoxifen citrate | 1.87

ClC(Cl)Br [Bromodichloromethane]
Details | concentration in plasma [ng/mL]
[16] | 1640
[18] | 68
[21] | 1310
[31] | 92.4
[32] | 779
[34] | 186
[35] | 151
[40] | 11.1

Details | concentration in plasma [ng/mL]
[17], 4 h | 21.8
[17], 5 min | 2570
[19], 4 h | 9.88
[19], 5 min | 2300
[20], 2 h | 18.4
[20], 10 min | 926
[22], 0.5 h | 307
[22], 2 h | 40.2
[23], 2 min | 1680
[23], 6 h | 11.9
[24], 2 min | 3310
[24], 6 h | 26.3
[25], 0.25 h | 341
[25], 8 h | 10.7
[26], 0.5 h | 67.9
[26], 2 h | 87.6
[27], 2 min | 2880
[27], 6 h | 16.1
[28], 0.5 h | 402
[28], 2 h | 42.5
[29], 0.5 h | 203
[29], 4 h | 13.8
[30], 0.25 h | 44.5
[30], 8 h | 6.93
[33], 0.25 h | 535
[33], 8 h | 6.97
[36], 0.25 h | 618
[36], 8 h | 3.69
[37], 0.25 h | 1340
[37], 8 h | 3.44
[38], 2 h | 56.3
[38], 5 min | 2210
[39], 2 min | 2280
[39], 6 h | 8.65

concentration in plasma [ng/mL], [4], dosed: Bromodichloromethane, 10 mg/kg, iv, F344
Details | Female | Male
0.25 h | 70.4 | 1070
0.5 h | 312 | 220
1 h | 62.1 | 105
2 h | 63.4 | 60.8
2 min | 2590 | 2820
4 h | 7.81 | 15.7
5 min | 1170 | 1100
6 h | 7.86 | 31.4
8 h | 6.28 | 4.65
10 min | 589 | 1070
12 h | – | 3.96

— EPA's CvTdb concentration-time database
